Test results: the NIST ThermoML archive (doi:10.1021/je100300s)

Assay: refractive index (Na D-line) (dimensionless); xn = mol fraction of the nth substance listed
Settings: 101 kPa, Liquid, Standard Abbe refractometry

CC(O)CN (stereo not drawn) [1-amino-2-propanol] + O
refractive index
Settings	293.15 K	298.15 K	303.15 K	308.15 K	313.15 K	318.15 K	323.15 K	328.15 K	333.15 K
x1 = 0.05	1.35692	1.35622	1.35539	1.35453	1.35365	1.35269	1.35169	1.35059	1.35023
x1 = 0.07	1.36527	1.36437	1.36345	1.36246	1.36149	1.36047	1.35931	1.35816	1.35711
x1 = 0.0986	1.3763	1.37524	1.37416	1.37306	1.37191	1.37079	1.36955	1.36821	1.36712
x1 = 0.1993	1.40333	1.40184	1.40038	1.39868	1.39716	1.39563	1.39469	1.39247	1.39103
x1 = 0.3003	1.41934	1.41723	1.41554	1.41385	1.41214	1.41051	1.40883	1.4072	1.40563
x1 = 0.3955	1.42844	1.4268	1.42513	1.42331	1.42155	1.41987	1.41801	1.4164	1.4146
x1 = 0.4929	1.43452	1.43286	1.431	1.42913	1.4273	1.42548	1.42386	1.4226	1.42038
x1 = 0.5995	1.43934	1.4377	1.4359	1.43375	1.43187	1.43017	1.42857	1.42697	1.42445
x1 = 0.7002	1.44298	1.44053	1.43897	1.43685	1.43493	1.43243	1.43146	1.43006	1.42775
x1 = 0.8006	1.44474	1.44287	1.4411	1.43908	1.43715	1.43532	1.43369	1.43134	1.42949
x1 = 0.8992	1.44655	1.4447	1.44275	1.44076	1.43889	1.43691	1.4349	1.43292	1.43089
x1 = 1	1.448	1.44609	1.44409	1.44211	1.44009	1.43817	1.43631	1.43405	1.43208
